# Assay results: patent US20060008574A1, “Galactosyl isomalt, method for production and use thereof” (priority 2002, published 2006)
# Tests used:
# human feces = assay: In vitro fermentation in human feces; format: cell-based; conditions: for Degradation rate: 0.5% (w/v) substrate, feces suspension, anaerobic, 37° C.
# Procedure: Incubation of carbohydrates with human feces allows statements to be made about the rate of metabolization by the bacterial population and formation of the short-chain fatty acid butyric acid.
# To invest the fermentability in an in vitro fermentation experiment, Raftilose® P95 (fructooligosaccharides, DP4-5), galactosyl lactose (Oligomate DP 3) and lactosucrose were used for comparison as carbohydrates of similar structure and degree of polymerization, in addition to β-galactosyl isomalts.
# An anaerobic medium of the following composition was used for the in vitro experiments:
# 9 mL of the anaerobic medium 1 described above are mixed with 0.5% (w/v) of the galactosyl isomalts to be tested (prepared according to Examples 1-3) and the corresponding controls lactosucrose and galactosyl lactose and then inoculated with 1 mL of a 10% feces suspension (mixed feces from two subjects) in anaerobic 50 mmol/L phosphate buffer, pH 7.0, to which 0.5 g/L cysteine/HCl was added beforehand as reducing agent.
# The batches are then incubated in “Hungate” test tubes for a maximum of 28 h while shaking at 37° C. Samples are taken at various times and tested for content of residual oligosaccharides, short-chain fatty acids, lactic acid and pH.
# [1] = tested on: glucoamylase/maltase (GM complex); assay: Stability with respect to small intestine α-glucosidases: glucoamylase/maltase; conditions: 120 min incubation
# Procedure: Solution 1: 0.1 mol/L triethanolamine (TEA) buffer, pH 7.0
# Solution 6: 1% solution of maltose in solution 1
# Solution 7: 1% solution of sucrose in solution 1
# Solution 8: 1% solution of isomalt in solution 1
# Solution 9: 1% solution of isomaltulose in solution 1
# Solution 11: Glucoamylase/maltase enzyme complex in solution 1
# i) 0.7 unit of the enzyme complex saccharase/isomaltase (solution 10) or glucoamylase/maltase (solution 11) was added in each case to 1.0 mL of a carbohydrate solution heated to 37° C. (solution 2 to solution 8), mixed and incubated at 37° C.
# ii) For incubation under more severe conditions, 16 units of the enzyme complex saccharase/isomaltase or 13 units of the enzyme complex glucoamylase/maltase were used. The reaction was stopped after 2 h by heating to 95° C. for 15 min. The resulting monosaccharides and the undegraded saccharides of the relevant batches were quantitatively determined by HPAEC.
compound,measurement,setting,value
"OCC1O[C@H](OC[C@@H](O)[C@@H](O)[C@H](O)C(O)CO)C(O)C(O[C@@H]2OC(CO)[C@H](O)C(O)C2O)[C@@H]1O (mixture of isomers) [β-1,3-Galactosyl isomalt, β-D-galactosyl-(1→3)-α-D-glucosyl-(1→6)-D-sorbitol(β-1,3-galactosyl-1,6-GPS) and β-D-galactosyl-(1→3)-α-D-glucosyl-(1→1)-D-mannitol(β-1,3-galactosyl-1,1-GPM)]",Butyrate content (end sample),human feces; end of fermentation with human feces,13.3 mmol/L
same,Degradation rate,human feces; incubation time 7 (h),62%
same,Degradation rate,human feces; incubation time 22 (h),93.6%
same,Degradation rate,human feces; incubation time 28 (h),97%
same,Hydrolysis rate [%],[1]; More stringent (13 units),0%
same,Hydrolysis rate [%],"[1]; Standard (0.7 unit), 37° C., pH 7.0",0%
